Measurements as given in ChEMBL document CHEMBL1128443, “Synthesis and structure-activity relationships of phenylenebis(methylene)-linked bis-tetraazamacrocycles that inhibit HIV replication. Effects of macrocyclic ring size and substituents on the aromatic linker” (J Med Chem, 1995).

Legend:
[1] = tested on: Human immunodeficiency virus 1; assay: Concentration required to protect the virus infected cells against viral cytopathicity was measured on HIV-1(IIIB) virus strain in MT-4 cells; format: functional, organism-based, MT4
[2] = tested on: Human immunodeficiency virus 2; assay: Concentration required to protect the virus infected cells against viral cytopathicity was measured on HIV-2(ROD) virus strain in MT-4 cells; format: functional, organism-based, MT4
MT4 [3] = assay: Concentration required to reduce the viability of mock-infected MT-4 cells; format: functional, Homo sapiens
MT4 [4] = conditions: Homo sapiens
[5] = Human immunodeficiency virus 1, MT4
[6] = Human immunodeficiency virus 2, MT4
[7] = mt4, tested as the Zn salt or complex

Compound | EC50 [1, 5] [µM] | EC50 [2, 6] [µM] | CC50 (MT4 [3]; Homo sapiens, MT4) [µM] | also measured
c1cc(CN2CCCNCCCNCCCNCCC2)cc(CN2CCCNCCCNCCCNCCC2)c1 | 16.7 | 71.5 | 193 | –
c1cc(CN2CCCNCCCNCCCNCCC2)ccc1CN1CCCNCCCNCCCNCCC1 | 9.13 | 13.7 | 48 | –
c1ccc(-c2cc(CN3CCCNCCNCCCNCC3)cc(CN3CCCNCCNCCCNCC3)c2)cc1 | 0.206 | 0.0246 | > 198 | –
c1cc(CN2CCCNCCNCCNCCC2)cc(CN2CCCNCCNCCNCCC2)c1 | 0.323 | 0.645 | > 403 | –
1,1'-[1,4-phenylenebis(methylene)]bis[1,4,8,11-tetraazacyclotetradecane]copper Heptahydrate (7H2O) [listing 1 of 2 here] | – | – | – | EC50 ([1]; mt4): 0.0181 µM; EC50 ([2]; mt4): 0.0272 µM
c1cc(CN2CCCNCCNCCNCCC2)ccc1CN1CCCNCCNCCNCCC1 | 0.0253 | 0.059 | > 421 | –
c1cc(CN2CCCNCCNCCCNCC2)ccc1CN1CCCNCCCNCCCNCCC1 | 2.43 | 11.6 | > 209 | –
c1cc(CN2CCCNCCNCCCNCC2)cc(CN2CCCNCCNCCCNCC2)c1 | 0.0337 | 0.0422 | > 421 | –
c1cc(CCCN2CCCNCCNCCCNCC2)ccc1CCCN1CCCNCCNCCCNCC1 | 0.403 | 14.5 | 283 | –
Clc1cc(CN2CCCNCCNCCCNCC2)c(Cl)cc1CN1CCCNCCNCCCNCC1 | 0.0107 | 0.0025 | 58 | –
Brc1cc(CN2CCCNCCNCCCNCC2)ccc1CN1CCCNCCNCCCNCC1 | 0.0061 | 0.0035 | > 203 | –
c1ccc(CN2CCCNCCNCCCNCC2)c(CN2CCCNCCNCCCNCC2)c1 | 1.36 | 3.13 | > 168 | –
c1cc(CN2CCCNCCNCCCNCC2)ccc1CN1CCCNCCNCCNCCC1 | 0.0079 | 0.0556 | > 397 | –
Cc1ccc(CN2CCCNCCNCCCNCC2)cc1 | 1.42 | 1.15 | > 324 | –
O=[N+]([O-])c1cc(CN2CCCNCCNCCCNCC2)cc(CN2CCCNCCNCCCNCC2)c1 | 0.0406 | 0.0569 | 44 | –
1,1'-[1,4-phenylenebis(methylene)]bis[1,4,8,11-tetraazacyclotetradecane] Palladium Diperchlorate Tetrahydrate (4H2O) [listing 1 of 2 here] | – | – | – | CC50 (MT4 [4]): > 210 µM
c1cc(CN2CCCNCCNCCCNCC2)ccc1CN1CCCNCCNCCCNCC1 [listing 1 of 2 here] | 0.0042 | – | > 421 | –
Fc1c(CN2CCCNCCNCCCNCC2)cccc1CN1CCCNCCNCCCNCC1 | 0.0347 | 0.0734 | > 201 | –
1,1'-[1,4-phenylenebis(methylene)]bis[1,4,8,11-tetraazacyclotetradecane]copper Heptahydrate (7H2O) [listing 2 of 2 here] | – | – | – | CC50 (MT4 [4]): > 201 µM
COc1cc(CN2CCCNCCNCCCNCC2)c(OC)cc1CN1CCCNCCNCCCNCC1 | 0.0058 | 0.0066 | > 206 | –
c1ccc(-c2cc(CN3CCCNCCNCCCNCC3)ccc2CN2CCCNCCNCCCNCC2)cc1 | 0.106 | 0.08 | > 198 | –

Compound | EC50 [1, 5] [µM] | EC50 [2, 6] [µM] | CC50 (MT4 [3]; Homo sapiens, MT4) [µM] | also measured
c1cc(CC2CNCCNCCCNCCNC2)ccc1CC1CNCCNCCCNCCNC1 | 0.506 | 0.674 | 406 | –
O=[N+]([O-])c1cc(CN2CCCNCCNCCCNCC2)ccc1CN1CCCNCCNCCCNCC1 | 0.065 | 0.0731 | > 203 | –
c1cc(CN2CCNCCNCCNCC2)cc(CN2CCNCCNCCNCC2)c1 | 0.0751 | 0.536 | 20 | –
c1cc(CN2CCCNCCNCCNCCC2)ccc1CN1CCCNCCCNCCCNCCC1 | 0.318 | 3.18 | 101 | –
Brc1c(CN2CCCNCCNCCCNCC2)cccc1CN1CCCNCCNCCCNCC1 | 0.138 | 0.246 | > 144 | –
c1cc(CN2CCCNCCCNCCNCCC2)cc(CN2CCCNCCCNCCNCCC2)c1 | 2.72 | 11.7 | > 190 | –
C1CNCCNCCCNCCNC1 | 399 | 150 | > 1250 | –
Fc1c(F)c(CN2CCCNCCNCCCNCC2)c(F)c(F)c1CN1CCCNCCNCCCNCC1 | 0.0079 | 0.0079 | 47 | –
Clc1c(Cl)c(CN2CCCNCCNCCCNCC2)c(Cl)c(CN2CCCNCCNCCCNCC2)c1Cl | 0.529 | 1.96 | 9 | –
c1cc(CN2CCCNCCCNCCNCCC2)ccc1CN1CCCNCCCNCCNCCC1 | 1.67 | 2.01 | 171 | –
c1cc(CN2CCCNCCNCCNCCC2)cc(CN2CCCNCCNCCCNCC2)c1 | 0.0843 | 0.759 | > 421 | –
Cc1cc(CN2CCCNCCNCCCNCC2)c(C)cc1CN1CCCNCCNCCCNCC1 | 0.0064 | 0.0011 | > 208 | –
1,1'-[1,4-phenylenebis(methylene)]bis[1,4,8,11-tetraazacyclotetradecane] Palladium Diperchlorate Tetrahydrate (4H2O) [listing 2 of 2 here] | – | – | – | EC50 ([1]; mt4): 31.5 µM; EC50 ([2]; mt4): 59.3 µM
c1cc(CN2CCNCCCNCCNCC2)ccc1CN1CCNCCCNCCNCC1 | 0.167 | 0.234 | > 208 | –
CCN1CCCN(CC)CCN(Cc2ccc(CN3CCCN(CC)CCN(CC)CCCN(CC)CC3)cc2)CCCN(CC)CC1 | 7.79 | 14.6 | > 341 | –
c1cc(CN2CCCNCCNCCCNCC2)ccc1CN1CCCNCCNCCCNCC1 [listing 2 of 2 here] | – | – | – | EC50 [1, 7]: 0.0033 µM; EC50 [2, 7]: 0.0024 µM; CC50 (MT4 [3]; tested as the Zn salt or complex): > 251 µM
c1cc(CN2CCNCCNCCNCC2)ccc1CN1CCNCCNCCNCC1 | 0.322 | 2.36 | 55 | –
NCCCNCCNCCCNCc1ccc(CN2CCCNCCNCCCNCC2)cc1 | 0.373 | 0.711 | > 444 | –
c1cc(CCN2CCCNCCNCCCNCC2)ccc1CCN1CCCNCCNCCCNCC1 | 14.9 | 69.7 | > 201 | –
c1cc(CN2CCNCCCNCCNCC2)cc(CN2CCNCCCNCCNCC2)c1 | 0.0408 | 0.0618 | > 184 | –
Brc1cc(CN2CCCNCCNCCCNCC2)cc(CN2CCCNCCNCCCNCC2)c1 | 0.0845 | 0.0538 | > 192 | –
